Laboratory results published in ChEMBL document CHEMBL1201862, “PubChem BioAssay data set” (2004).
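Five compound concentrations were applied to cells in 96-well plates for 48 hours; endpoints were derived by simple linear interpolation of the resulting dose-response curve. GI50: concentration for 50% inhibition of growth.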 Calls of active or inactive are those of the source. Rule as the data show it: active = GI50 up to about 1.1 µM and inactive = higher.

Key:
Assay in all cases: DTP human tumour cell line panel, 48 h
LOX IMVI = system: LOX IMVI
U-251 = system: U-251
SW-620 = system: SW-620
HCT-15 = system: HCT-15
COLO 205 = system: COLO 205
SK-MEL-28 = system: SK-MEL-28
HCC 2998 = system: HCC 2998
K562 = system: K562
SF-268 = system: SF-268
RPMI-8226 = system: RPMI-8226
OVCAR-8 = system: OVCAR-8
SK-MEL-2 = system: SK-MEL-2
NCI-H226 = system: NCI-H226
OVCAR-3 = system: OVCAR-3
CAKI-1 = system: CAKI-1

| SMILES | GI50 (LOX IMVI) | GI50 (U-251) | GI50 (SW-620) | GI50 (HCT-15) | GI50 (COLO 205) | GI50 (SK-MEL-28) | GI50 (HCC 2998) | GI50 (K562) | GI50 (SF-268) | GI50 (RPMI-8226) | GI50 (OVCAR-8) | GI50 (SK-MEL-2) | GI50 (NCI-H226) | GI50 (OVCAR-3) | GI50 (CAKI-1) |
| --- | --- | --- | --- | --- | --- | --- | --- | --- | --- | --- | --- | --- | --- | --- | --- |
| O=C1Nc2ccc(Br)cc2/C1=N/Nc1ccc([N+](=O)[O-])cc1 | 21 µM (inactive) | 18.7 µM (inactive) | 26.4 µM (inactive) | 27.2 µM | 27.2 µM (inactive) | 16.8 µM (inactive) | 33.3 µM (inactive) | 19.6 µM (inactive) | 17.5 µM (inactive) | 16.4 µM (inactive) | 14.4 µM (inactive) | 31 µM (inactive) | 18 µM (inactive) | 19.9 µM (inactive) | 22.8 µM (inactive) |
| COc1ccc2oc(C(=O)O)c3c2c1CCC3CCC(=O)O (configuration not stated) | > 100 µM (inactive) | > 100 µM (inactive) | > 100 µM (inactive) | – | > 100 µM (inactive) | > 100 µM (inactive) | > 100 µM (inactive) | > 100 µM (inactive) | > 100 µM (inactive) | > 100 µM (inactive) | > 100 µM (inactive) | > 100 µM (inactive) | – | – | – |
| CCCCNC(=O)C1C2CCC(O2)C1C(=O)O (configuration not stated) | 16.5 µM (inactive) | 13.6 µM (inactive) | 1.71 µM (inactive) | 23.7 µM | 16.6 µM (inactive) | 28 µM (inactive) | 26.2 µM (inactive) | – | 17.7 µM (inactive) | 20.9 µM (inactive) | 20.5 µM (inactive) | 27.5 µM (inactive) | 19 µM (inactive) | 16 µM (inactive) | – |
| CCCCCCCC/C=C\CCCCCCCC(=O)NCCN(CCN)C(=O)CCCCCCC/C=C\CCCCCCCC | > 100 µM (inactive) | > 100 µM (inactive) | > 100 µM (inactive) | > 100 µM | > 100 µM (inactive) | > 100 µM (inactive) | > 100 µM (inactive) | > 100 µM (inactive) | > 100 µM (inactive) | > 100 µM (inactive) | > 100 µM (inactive) | – | > 100 µM (inactive) | 78.7 µM (inactive) | 51.5 µM (inactive) |
| CCCCCCCCCCC/C(=N/O)c1ccc(O)c2ncccc12 | 2.37 µM (inactive) | 4.48 µM (inactive) | 3.86 µM (inactive) | – | 45.9 µM (inactive) | 9.25 µM (inactive) | 5.28 µM (inactive) | – | 2.9 µM (inactive) | – | 4.29 µM (inactive) | 2.4 µM (inactive) | 3.22 µM (inactive) | – | 3.16 µM (inactive) |
| OC1C2C=CCC1CCC2 (configuration not stated) | > 100 µM (inactive) | > 100 µM (inactive) | > 100 µM (inactive) | – | > 100 µM (inactive) | > 100 µM (inactive) | – | > 100 µM (inactive) | > 100 µM (inactive) | > 100 µM (inactive) | > 100 µM (inactive) | > 100 µM (inactive) | > 100 µM (inactive) | > 100 µM (inactive) | > 100 µM (inactive) |
| N=C(N)NS(=O)(=O)c1ccc(Nc2c3ccccc3nc3c(C(=O)N4CCN(CCO)CC4)cccc23)cc1 | > 100 µM (inactive) | > 100 µM (inactive) | > 100 µM (inactive) | > 100 µM | > 100 µM (inactive) | > 100 µM (inactive) | > 100 µM (inactive) | > 100 µM (inactive) | > 100 µM (inactive) | – | > 100 µM (inactive) | > 100 µM (inactive) | > 100 µM (inactive) | > 100 µM (inactive) | > 100 µM (inactive) |
| COc1ccc2nc3cc(Cl)ccc3c(NCCC(=O)OCC(O)C(O)C(O[C@H](C)C(=O)NC(C)C(=O)NC(CCC(N)=O)C(=O)OCc3ccccc3)C(C=O)NC(C)=O)c2c1 (some centres not stated) | – | 18.2 µM (inactive) | 15 µM (inactive) | 20.7 µM | 18.3 µM (inactive) | 17.7 µM (inactive) | 17.7 µM (inactive) | 14 µM (inactive) | 17.9 µM (inactive) | – | 16 µM (inactive) | 21.1 µM (inactive) | 22.5 µM (inactive) | 19.2 µM (inactive) | 20.2 µM (inactive) |
| O=C(Cc1ccccc1)Oc1ccc2c(-c3ccccc3)c(C(=O)Nc3ccc(Cl)cc3)c(=O)oc2c1 | > 100 µM (inactive) | > 100 µM (inactive) | > 100 µM (inactive) | > 100 µM | > 100 µM (inactive) | > 100 µM (inactive) | > 100 µM (inactive) | > 100 µM (inactive) | > 100 µM (inactive) | > 100 µM (inactive) | > 100 µM (inactive) | – | > 100 µM (inactive) | > 100 µM (inactive) | > 100 µM (inactive) |
| Fc1cccc(C2SCc3nc4ccccc4n32)c1F (configuration not stated) | 84.3 µM (inactive) | 82.8 µM (inactive) | > 100 µM (inactive) | 59.3 µM | 80.5 µM (inactive) | – | > 100 µM (inactive) | 33 µM (inactive) | 98.4 µM (inactive) | 31.1 µM (inactive) | 69.3 µM (inactive) | 7.52 µM (inactive) | 41.6 µM (inactive) | 29.1 µM (inactive) | 59.4 µM (inactive) |
| O=C(Nc1cc(Cl)c(Cl)cc1Cl)C(=O)C(C(=O)c1ccc2ccccc2c1)C1OC(=O)c2ccccc21 (configuration not stated) | 15.5 µM (inactive) | 4.47 µM (inactive) | 10.8 µM (inactive) | 17.3 µM | 17 µM (inactive) | 10.3 µM (inactive) | – | – | > 10 µM (inactive) | 11.9 µM (inactive) | 8 µM (inactive) | 14.4 µM (inactive) | 2.65 µM (inactive) | 16.3 µM (inactive) | > 10 µM (inactive) |
| O=C(CSc1c2ccccc2nc2ccccc12)Nc1ccccc1-c1ccccc1NC(=O)CSc1c2ccccc2nc2ccccc12 | 17.2 µM (inactive) | 26.7 µM (inactive) | 28.6 µM (inactive) | 20.2 µM | 30.1 µM (inactive) | 20.8 µM (inactive) | 17.4 µM (inactive) | 2.37 µM (inactive) | 26.8 µM (inactive) | 4.46 µM (inactive) | 28.5 µM (inactive) | 17.6 µM (inactive) | 29.2 µM (inactive) | 16.4 µM (inactive) | 26.6 µM (inactive) |
| O=C1CNNC(Cn2nc(-c3ccccc3)c3ccccc3c2=O)=N1 | – | > 100 µM (inactive) | > 100 µM (inactive) | > 100 µM | > 100 µM (inactive) | > 100 µM (inactive) | > 100 µM (inactive) | > 100 µM (inactive) | > 100 µM (inactive) | > 100 µM (inactive) | > 100 µM (inactive) | > 100 µM (inactive) | > 100 µM (inactive) | > 100 µM (inactive) | – |
| O=C(O)CCSCCCN1C(=O)c2ccccc2C1=O | – | > 100 µM (inactive) | > 100 µM (inactive) | > 100 µM | > 100 µM (inactive) | > 100 µM (inactive) | > 100 µM (inactive) | > 100 µM (inactive) | > 100 µM (inactive) | > 100 µM (inactive) | > 100 µM (inactive) | > 100 µM (inactive) | > 100 µM (inactive) | > 100 µM (inactive) | – |
| COc1ccccc1NC(=O)C(=O)C(c1cnc2ccc([N+](=O)[O-])cc2n1)[N+](=O)[O-] (configuration not stated) | > 100 µM (inactive) | > 100 µM (inactive) | > 100 µM (inactive) | > 100 µM | 38.3 µM (inactive) | > 100 µM (inactive) | 92 µM (inactive) | 31.5 µM (inactive) | > 100 µM (inactive) | 25.2 µM (inactive) | > 100 µM (inactive) | > 100 µM (inactive) | > 100 µM (inactive) | – | > 100 µM (inactive) |
| Cc1ccc(S(=O)(=O)c2c(N)c3nccn3c3nc4ccccc4nc23)cc1 | > 100 µM (inactive) | > 100 µM (inactive) | > 100 µM (inactive) | > 100 µM | > 100 µM (inactive) | > 100 µM (inactive) | > 100 µM (inactive) | > 100 µM (inactive) | > 100 µM (inactive) | > 100 µM (inactive) | > 100 µM (inactive) | > 100 µM (inactive) | – | > 100 µM (inactive) | > 100 µM (inactive) |
| O=C(Cc1ccccc1)C(c1ccccc1)S(=O)(=O)c1ccccc1 (configuration not stated) | > 100 µM (inactive) | > 100 µM (inactive) | > 100 µM (inactive) | 83.6 µM | > 100 µM (inactive) | > 100 µM (inactive) | > 100 µM (inactive) | 93.3 µM (inactive) | > 100 µM (inactive) | > 100 µM (inactive) | > 100 µM (inactive) | > 100 µM (inactive) | > 100 µM (inactive) | > 100 µM (inactive) | > 100 µM (inactive) |
| COC(=O)CC(=O)C[P+](c1ccccc1)(c1ccccc1)c1ccccc1 | > 218 µM (inactive) | > 218 µM (inactive) | 121 µM (inactive) | 56.5 µM | 168 µM (inactive) | 196 µM (inactive) | > 218 µM (inactive) | 68.5 µM (inactive) | > 218 µM (inactive) | 63.5 µM (inactive) | 150 µM (inactive) | > 218 µM (inactive) | 180 µM (inactive) | 69.7 µM (inactive) | > 218 µM (inactive) |
| CCOC(=O)NN1C(=O)C(=P(c2ccccc2)(c2ccccc2)c2ccccc2)C(C(=O)OCC)=C1C | > 100 µM (inactive) | > 100 µM (inactive) | > 100 µM (inactive) | > 100 µM | > 100 µM (inactive) | – | > 100 µM (inactive) | > 100 µM (inactive) | > 100 µM (inactive) | > 100 µM (inactive) | > 100 µM (inactive) | > 100 µM (inactive) | > 100 µM (inactive) | > 100 µM (inactive) | > 100 µM (inactive) |
| COC(=O)CC(C(C(=O)OCc1ccccc1)C(C)O)N1C(=O)OC(c2ccccc2)C1c1ccccc1 (configuration not stated) | > 100 µM (inactive) | > 100 µM (inactive) | > 100 µM (inactive) | > 100 µM | > 100 µM (inactive) | > 100 µM (inactive) | > 100 µM (inactive) | 81.1 µM (inactive) | > 100 µM (inactive) | 62.7 µM (inactive) | > 100 µM (inactive) | > 100 µM (inactive) | > 100 µM (inactive) | > 100 µM (inactive) | – |
